Measurements from the NIST ThermoML archive (doi:10.1021/je049960h).
Numbers after ± are expanded uncertainties.

Conditions: 101.33 kPa, Liquid; for viscosity: Capillary tube (Ostwald / Ubbelohde) method; for mass density: Pycnometric method; for thermal conductivity: Hot wire method

CC(O)COC(C)COC(C)CO (stereo not drawn) [2-[2-(2-hydroxypropoxy)propoxy]-1-propanol]
Conditions | mass density [kg/m3] | thermal conductivity [W/m/K] | viscosity [mPa·s]
294.82 K | – | – | 69.4 ± 1.8
295.01 K | 1017 ± 3 | – | –
298.1 K | – | 0.152 ± 0.003 | –
313.05 K | 1003 ± 3 | – | 23.6 ± 0.6
326.1 K | – | 0.152 ± 0.003 | –
333.1 K | 986.4 ± 2.5 | – | 9.64 ± 0.25
351.1 K | – | 0.15 ± 0.003 | –
353.1 K | 969.9 ± 2.5 | – | 4.85 ± 0.12
372.15 K | 953.5 ± 2.4 | – | 2.91 ± 0.07
376.2 K | – | 0.148 ± 0.003 | –
391.5 K | 936.4 ± 2.4 | – | 1.91 ± 0.05
399.4 K | – | 0.145 ± 0.003 | –
411.35 K | 918.7 ± 2.4 | – | 1.33 ± 0.03
424.9 K | – | 0.14 ± 0.003 | –
428.2 K | 903.3 ± 2.3 | – | 1.03 ± 0.03
449.6 K | – | 0.135 ± 0.003 | –

CC(O)CO (stereo not drawn) [1,2-propanediol]
Conditions | mass density [kg/m3] | thermal conductivity [W/m/K] | viscosity [mPa·s]
297.25 K | – | – | 46.4 ± 1
298.85 K | 1033 ± 2 | – | –
299.1 K | – | 0.196 ± 0.004 | –
302.55 K | – | – | 34 ± 0.7
313.6 K | – | 0.195 ± 0.004 | –
317.1 K | – | – | 16.4 ± 0.4
318.05 K | 1018 ± 2 | – | –
332.3 K | – | – | 8.75 ± 0.18
332.9 K | – | 0.195 ± 0.004 | –
339 K | 1003 ± 2 | – | –
347.4 K | – | – | 5.26 ± 0.11
352.3 K | – | 0.194 ± 0.004 | –
359.4 K | 986.1 ± 2 | – | –
362.05 K | – | – | 3.42 ± 0.07
371.6 K | – | 0.193 ± 0.004 | –
376.45 K | – | – | 2.34 ± 0.05
380.95 K | 967.6 ± 2 | – | –
391.05 K | – | – | 1.67 ± 0.04
391.1 K | – | 0.192 ± 0.004 | –
399.6 K | 951.2 ± 2 | – | –
406.05 K | – | – | 1.27 ± 0.03
411.4 K | – | 0.19 ± 0.004 | –
420.2 K | 931.7 ± 1.9 | – | –
420.85 K | – | – | 0.982 ± 0.021
430.4 K | – | 0.187 ± 0.004 | –
440.35 K | 912.2 ± 1.9 | – | –
450.8 K | – | 0.183 ± 0.004 | –

OCCCOCCCO [4-oxa-1,7-heptanediol]
Conditions | mass density [kg/m3] | thermal conductivity [W/m/K] | viscosity [mPa·s]
297.42 K | – | – | 81.5 ± 1.8
297.45 K | 1020 ± 2 | – | –
298.2 K | – | 0.156 ± 0.003 | –
309.8 K | – | 0.157 ± 0.003 | –
313.05 K | 1008 ± 2 | – | –
313.07 K | – | – | 29.8 ± 0.7
316.9 K | – | 0.156 ± 0.003 | –
333.1 K | 992.4 ± 2.1 | – | 11.1 ± 0.2
347.4 K | – | 0.156 ± 0.003 | –
353.1 K | 976.1 ± 2 | – | 5.24 ± 0.11
363 K | – | 0.156 ± 0.003 | –
372.25 K | 960.3 ± 2 | – | 3 ± 0.06
377.6 K | – | 0.155 ± 0.003 | –
391.45 K | 943.1 ± 2 | – | 1.9 ± 0.04
391.6 K | – | 0.154 ± 0.003 | –
405.7 K | – | 0.153 ± 0.003 | –
408.35 K | 928.1 ± 2 | – | 1.36 ± 0.03
420.3 K | 916.9 ± 2 | – | 1.1 ± 0.02
420.6 K | – | 0.151 ± 0.003 | –
428.3 K | 909.6 ± 1.9 | – | 0.97 ± 0.021
435.1 K | – | 0.149 ± 0.003 | –
